Laboratory results taken from paper PMC11289455 (Scientific Reports, 2024).
Read-outs that look alike come from different tables or passages of the source.

Key:
[1] = biological target: T1, A2A (adenosine 2A receptor) (Homo sapiens, UniProt P29274); assay: SafetyScreen44: A2A; type: binding
T1 construct: purchased Eurofins Cerep SafetyScreen44

[2] = biological target: T2, CB2 (cannabinoid receptor type 2) (Homo sapiens, UniProt P34972); assay: SafetyScreen44: CB2; type: binding
T2 construct: purchased Eurofins Cerep SafetyScreen44
T2 sequence (P34972 whole entry): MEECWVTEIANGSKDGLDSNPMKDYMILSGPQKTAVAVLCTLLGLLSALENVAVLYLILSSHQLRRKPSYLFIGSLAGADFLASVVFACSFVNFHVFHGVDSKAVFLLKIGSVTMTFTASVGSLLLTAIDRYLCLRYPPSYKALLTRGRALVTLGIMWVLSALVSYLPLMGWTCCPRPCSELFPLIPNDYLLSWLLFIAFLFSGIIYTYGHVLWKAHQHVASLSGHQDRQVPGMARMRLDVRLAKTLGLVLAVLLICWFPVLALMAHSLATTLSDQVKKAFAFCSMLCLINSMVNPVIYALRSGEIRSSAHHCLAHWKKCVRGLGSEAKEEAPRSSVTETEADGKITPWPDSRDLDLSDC

[3] = biological target: T3, H1 (histamine H1 receptor) (Homo sapiens, UniProt P35367); assay: SafetyScreen44: H1; type: binding
T3 construct: purchased Eurofins Cerep SafetyScreen44
T3 sequence (P35367 whole entry): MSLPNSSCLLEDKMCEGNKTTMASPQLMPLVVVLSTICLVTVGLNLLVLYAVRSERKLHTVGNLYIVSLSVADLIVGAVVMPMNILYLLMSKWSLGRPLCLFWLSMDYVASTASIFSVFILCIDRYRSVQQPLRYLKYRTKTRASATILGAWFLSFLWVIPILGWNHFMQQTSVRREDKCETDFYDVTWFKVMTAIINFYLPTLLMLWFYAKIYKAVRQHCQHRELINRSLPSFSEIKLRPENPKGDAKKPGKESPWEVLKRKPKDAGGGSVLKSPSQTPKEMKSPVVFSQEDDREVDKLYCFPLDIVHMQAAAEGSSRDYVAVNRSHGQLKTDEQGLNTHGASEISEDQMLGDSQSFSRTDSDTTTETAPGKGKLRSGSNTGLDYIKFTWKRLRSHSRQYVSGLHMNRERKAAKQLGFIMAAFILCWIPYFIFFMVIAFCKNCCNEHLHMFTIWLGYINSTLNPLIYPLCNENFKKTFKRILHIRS

[4] = biological target: T4, M1 (muscarinic acetylcholine receptor M1) (Homo sapiens, UniProt P11229); assay: SafetyScreen44: M1; type: binding
T4 construct: purchased Eurofins Cerep SafetyScreen44
T4 sequence (P11229 1-460): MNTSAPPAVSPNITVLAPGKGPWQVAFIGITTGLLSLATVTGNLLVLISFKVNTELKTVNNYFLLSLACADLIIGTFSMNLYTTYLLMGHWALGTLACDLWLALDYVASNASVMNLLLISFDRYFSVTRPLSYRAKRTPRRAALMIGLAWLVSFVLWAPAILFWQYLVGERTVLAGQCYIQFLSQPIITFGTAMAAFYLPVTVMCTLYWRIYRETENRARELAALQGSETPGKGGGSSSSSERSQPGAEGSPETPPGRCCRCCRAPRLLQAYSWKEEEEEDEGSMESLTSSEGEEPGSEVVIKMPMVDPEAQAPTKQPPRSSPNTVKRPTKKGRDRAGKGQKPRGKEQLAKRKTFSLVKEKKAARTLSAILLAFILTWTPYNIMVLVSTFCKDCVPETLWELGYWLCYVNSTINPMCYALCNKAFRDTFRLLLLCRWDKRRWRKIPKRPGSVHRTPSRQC

[5] = biological target: T5, N neuronal α4β2 (neuronal alpha-4-beta-2 nicotinic acetylcholine receptor) (Homo sapiens, UniProt P17787+P43681); assay: SafetyScreen44: N neuronal α4β2; type: binding
T5 construct: purchased Eurofins Cerep SafetyScreen44
T5 sequence (P43681 29-627 limits assumed): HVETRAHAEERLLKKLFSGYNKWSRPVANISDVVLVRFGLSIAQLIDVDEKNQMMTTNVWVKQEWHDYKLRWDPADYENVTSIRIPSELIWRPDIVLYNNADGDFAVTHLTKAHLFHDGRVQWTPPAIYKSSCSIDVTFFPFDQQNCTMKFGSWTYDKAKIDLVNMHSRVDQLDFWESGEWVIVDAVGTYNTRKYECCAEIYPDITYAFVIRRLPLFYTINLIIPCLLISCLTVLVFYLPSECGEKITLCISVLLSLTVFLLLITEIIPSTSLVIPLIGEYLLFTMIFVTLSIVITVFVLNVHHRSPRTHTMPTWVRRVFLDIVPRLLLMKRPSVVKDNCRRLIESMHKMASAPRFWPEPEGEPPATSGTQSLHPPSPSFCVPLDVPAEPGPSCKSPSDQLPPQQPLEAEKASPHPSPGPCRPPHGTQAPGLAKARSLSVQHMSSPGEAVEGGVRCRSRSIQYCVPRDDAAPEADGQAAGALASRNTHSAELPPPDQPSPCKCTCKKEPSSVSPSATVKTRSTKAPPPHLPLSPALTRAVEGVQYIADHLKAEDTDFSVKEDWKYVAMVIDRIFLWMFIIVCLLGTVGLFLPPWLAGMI
T5 sequence (P17787 26-502): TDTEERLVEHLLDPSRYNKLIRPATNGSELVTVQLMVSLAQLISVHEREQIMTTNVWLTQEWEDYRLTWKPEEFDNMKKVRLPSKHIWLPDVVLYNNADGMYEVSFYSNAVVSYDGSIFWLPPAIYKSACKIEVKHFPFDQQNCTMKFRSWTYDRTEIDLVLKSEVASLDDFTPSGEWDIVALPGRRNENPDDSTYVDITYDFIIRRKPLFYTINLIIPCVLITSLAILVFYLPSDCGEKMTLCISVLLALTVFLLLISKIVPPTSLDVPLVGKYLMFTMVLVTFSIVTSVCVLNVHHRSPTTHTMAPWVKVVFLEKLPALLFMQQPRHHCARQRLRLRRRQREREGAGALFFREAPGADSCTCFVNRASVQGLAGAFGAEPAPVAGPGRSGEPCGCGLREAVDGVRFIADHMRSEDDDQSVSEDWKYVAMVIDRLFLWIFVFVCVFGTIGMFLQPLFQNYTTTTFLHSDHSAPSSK

[6] = biological target: T6, AR (androgen receptor) (Homo sapiens, UniProt P10275, T878A); assay: SafetyScreen44: AR; type: binding
T6 construct: purchased Eurofins Cerep SafetyScreen44
T6 sequence (P10275 1-920 T878A): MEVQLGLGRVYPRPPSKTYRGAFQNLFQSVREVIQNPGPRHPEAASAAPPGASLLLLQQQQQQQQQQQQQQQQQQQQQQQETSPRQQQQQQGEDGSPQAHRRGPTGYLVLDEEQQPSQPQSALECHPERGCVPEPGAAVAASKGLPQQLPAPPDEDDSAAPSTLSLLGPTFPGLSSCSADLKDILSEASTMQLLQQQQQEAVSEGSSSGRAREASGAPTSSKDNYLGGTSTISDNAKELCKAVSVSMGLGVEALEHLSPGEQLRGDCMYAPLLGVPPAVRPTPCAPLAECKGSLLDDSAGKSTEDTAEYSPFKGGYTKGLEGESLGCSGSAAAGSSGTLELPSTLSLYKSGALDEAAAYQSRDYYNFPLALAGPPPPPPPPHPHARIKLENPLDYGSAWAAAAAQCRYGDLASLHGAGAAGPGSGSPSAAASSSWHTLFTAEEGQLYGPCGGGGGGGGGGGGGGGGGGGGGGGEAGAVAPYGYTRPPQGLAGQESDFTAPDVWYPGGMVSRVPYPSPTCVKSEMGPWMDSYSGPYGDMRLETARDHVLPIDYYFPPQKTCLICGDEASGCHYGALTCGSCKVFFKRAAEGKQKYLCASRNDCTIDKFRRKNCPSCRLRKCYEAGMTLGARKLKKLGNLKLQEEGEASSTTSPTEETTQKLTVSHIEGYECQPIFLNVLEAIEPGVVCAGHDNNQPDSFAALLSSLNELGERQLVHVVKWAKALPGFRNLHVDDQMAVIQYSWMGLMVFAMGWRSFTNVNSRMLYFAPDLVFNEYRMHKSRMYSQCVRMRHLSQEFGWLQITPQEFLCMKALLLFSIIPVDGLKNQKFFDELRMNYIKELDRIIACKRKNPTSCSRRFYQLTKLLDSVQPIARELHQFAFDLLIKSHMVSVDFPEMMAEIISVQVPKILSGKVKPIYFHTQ

[7] = biological target: T7, V1a (vasopressin receptor 1A) (Homo sapiens, UniProt P37288); assay: SafetyScreen44: V1a; type: binding
T7 construct: purchased Eurofins Cerep SafetyScreen44
T7 sequence (P37288 whole entry): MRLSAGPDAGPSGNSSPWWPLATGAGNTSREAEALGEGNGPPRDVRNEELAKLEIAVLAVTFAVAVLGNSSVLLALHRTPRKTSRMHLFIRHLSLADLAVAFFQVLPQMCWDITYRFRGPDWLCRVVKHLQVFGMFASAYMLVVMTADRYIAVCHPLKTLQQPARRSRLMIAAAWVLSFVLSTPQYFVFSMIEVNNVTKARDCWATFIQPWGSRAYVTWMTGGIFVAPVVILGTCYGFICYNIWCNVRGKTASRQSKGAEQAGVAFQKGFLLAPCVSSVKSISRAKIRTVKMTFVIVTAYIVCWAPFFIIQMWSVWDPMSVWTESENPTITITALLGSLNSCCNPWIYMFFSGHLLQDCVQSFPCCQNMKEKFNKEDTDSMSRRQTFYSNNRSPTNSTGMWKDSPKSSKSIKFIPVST

[8] = biological target: T8, COX1 (Homo sapiens, UniProt P23219); assay: SafetyScreen44: COX1; type: biochemical
T8 construct: purchased Eurofins Cerep SafetyScreen44
T8 sequence (P23219 24-599): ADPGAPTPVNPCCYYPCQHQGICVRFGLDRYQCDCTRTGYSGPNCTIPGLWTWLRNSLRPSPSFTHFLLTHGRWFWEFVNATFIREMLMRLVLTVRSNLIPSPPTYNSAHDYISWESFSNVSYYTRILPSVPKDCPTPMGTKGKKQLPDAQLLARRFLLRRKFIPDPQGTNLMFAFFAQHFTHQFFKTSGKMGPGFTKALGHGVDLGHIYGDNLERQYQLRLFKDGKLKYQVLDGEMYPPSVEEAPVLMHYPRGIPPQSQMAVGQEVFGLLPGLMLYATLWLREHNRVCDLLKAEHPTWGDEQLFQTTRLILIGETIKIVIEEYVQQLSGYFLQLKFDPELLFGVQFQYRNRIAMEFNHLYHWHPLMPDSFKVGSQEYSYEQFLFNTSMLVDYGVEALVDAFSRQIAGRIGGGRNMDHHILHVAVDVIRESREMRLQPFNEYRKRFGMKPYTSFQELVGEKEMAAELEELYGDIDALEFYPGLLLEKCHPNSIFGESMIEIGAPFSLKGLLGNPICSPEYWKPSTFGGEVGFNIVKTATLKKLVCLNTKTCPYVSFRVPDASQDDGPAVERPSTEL

[9] = biological target: T9, PDE4D2 (cAMP-specific 3’,5’-cyclic phosphodiesterase 4D2) (Homo sapiens, UniProt Q08499); assay: SafetyScreen44: PDE4D2; type: biochemical
T9 construct: purchased Eurofins Cerep SafetyScreen44
T9 sequence (Q08499 303-809 limits assumed): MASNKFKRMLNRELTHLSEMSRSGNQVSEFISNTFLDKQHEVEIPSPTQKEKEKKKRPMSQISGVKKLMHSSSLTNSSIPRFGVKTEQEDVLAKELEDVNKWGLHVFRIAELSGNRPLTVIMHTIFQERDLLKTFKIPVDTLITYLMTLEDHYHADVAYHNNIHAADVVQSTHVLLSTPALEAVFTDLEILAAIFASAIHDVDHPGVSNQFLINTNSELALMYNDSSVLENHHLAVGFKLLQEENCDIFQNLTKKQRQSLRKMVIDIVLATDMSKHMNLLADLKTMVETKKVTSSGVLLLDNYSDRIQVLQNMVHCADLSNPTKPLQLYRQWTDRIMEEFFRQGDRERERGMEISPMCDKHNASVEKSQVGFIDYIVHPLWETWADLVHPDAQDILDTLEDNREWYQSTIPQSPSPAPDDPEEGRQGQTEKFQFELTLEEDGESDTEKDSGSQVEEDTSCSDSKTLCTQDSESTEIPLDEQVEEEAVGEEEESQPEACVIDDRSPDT

[10] = biological target: T10, Lck kinase (lymphocyte-specific protein tyrosine kinase) (Homo sapiens, UniProt P06239); assay: SafetyScreen44: Lck kinase; type: biochemical
T10 construct: purchased Eurofins Cerep SafetyScreen44
T10 sequence (P06239 whole entry): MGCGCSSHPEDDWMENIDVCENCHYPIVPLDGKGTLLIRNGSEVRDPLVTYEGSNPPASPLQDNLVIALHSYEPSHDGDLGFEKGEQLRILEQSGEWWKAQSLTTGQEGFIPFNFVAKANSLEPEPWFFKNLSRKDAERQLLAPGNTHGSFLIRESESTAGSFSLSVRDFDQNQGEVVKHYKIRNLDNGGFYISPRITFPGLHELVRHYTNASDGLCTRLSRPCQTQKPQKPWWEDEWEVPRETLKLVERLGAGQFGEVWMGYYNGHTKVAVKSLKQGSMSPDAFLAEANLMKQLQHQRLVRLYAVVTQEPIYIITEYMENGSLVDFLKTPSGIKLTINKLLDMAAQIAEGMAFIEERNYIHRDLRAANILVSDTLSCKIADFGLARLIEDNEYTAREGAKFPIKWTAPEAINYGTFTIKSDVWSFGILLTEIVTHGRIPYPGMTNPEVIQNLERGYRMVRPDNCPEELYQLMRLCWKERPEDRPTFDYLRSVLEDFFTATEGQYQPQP

[11] = biological target: T11, acetylcholinesterase (Homo sapiens, UniProt P22303); assay: SafetyScreen44: acetylcholinesterase; type: biochemical
T11 construct: purchased Eurofins Cerep SafetyScreen44
T11 sequence (P22303 32-614): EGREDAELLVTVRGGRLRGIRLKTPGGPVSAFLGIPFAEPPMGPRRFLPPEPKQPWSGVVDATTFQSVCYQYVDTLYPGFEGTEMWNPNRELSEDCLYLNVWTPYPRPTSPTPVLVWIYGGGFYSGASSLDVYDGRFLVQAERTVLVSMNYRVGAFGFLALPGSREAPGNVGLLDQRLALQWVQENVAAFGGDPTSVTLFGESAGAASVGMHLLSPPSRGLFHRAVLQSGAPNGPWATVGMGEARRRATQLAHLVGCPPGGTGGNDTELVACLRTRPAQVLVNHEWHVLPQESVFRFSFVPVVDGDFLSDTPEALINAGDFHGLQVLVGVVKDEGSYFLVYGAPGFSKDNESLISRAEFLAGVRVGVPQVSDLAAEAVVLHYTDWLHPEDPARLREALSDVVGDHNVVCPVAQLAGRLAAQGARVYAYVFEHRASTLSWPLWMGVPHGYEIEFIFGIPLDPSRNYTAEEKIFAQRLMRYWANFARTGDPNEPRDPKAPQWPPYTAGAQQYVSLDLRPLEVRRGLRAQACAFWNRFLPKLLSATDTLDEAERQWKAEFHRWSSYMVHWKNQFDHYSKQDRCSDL

[12] = Plasma concentration in rat pharmacokinetic-pharmacodynamic model; type: in vivo

T1 sequence (P29274 whole entry): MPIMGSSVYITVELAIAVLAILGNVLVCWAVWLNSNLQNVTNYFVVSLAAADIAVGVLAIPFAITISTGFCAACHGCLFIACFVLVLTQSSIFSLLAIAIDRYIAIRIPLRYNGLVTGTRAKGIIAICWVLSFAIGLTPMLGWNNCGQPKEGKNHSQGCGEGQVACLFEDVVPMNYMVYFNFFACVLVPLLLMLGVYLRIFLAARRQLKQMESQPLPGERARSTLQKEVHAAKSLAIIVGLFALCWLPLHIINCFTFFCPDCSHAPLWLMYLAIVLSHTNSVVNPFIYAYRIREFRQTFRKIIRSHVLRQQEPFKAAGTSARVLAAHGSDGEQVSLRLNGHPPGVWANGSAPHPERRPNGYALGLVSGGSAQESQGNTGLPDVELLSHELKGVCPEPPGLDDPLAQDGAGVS

With `CC(=O)NCCCC[C@@H]1NC(=O)[C@H](Cc2c[nH]c3c(C)cccc23)NC(=O)[C@H]([C@@H](C)O)NC(=O)[C@H](CC(N)=O)NC(=O)[C@@H](NC(C)=O)C(C)(C)SSC(C)(C)[C@@H](C(=O)N[C@@H](Cc2ccc(OCCN)cc2)C(=O)N[C@@H](Cc2ccc3ccccc3c2)C(=O)NC2(C(=O)N[C@@H](CCC(=O)O)C(=O)N[C@@H](CC(N)=O)C(=O)N[C@@H](Cc3cccnc3)C(=O)N(C)CC(N)=O)CCOCC2)NC1=O` [JNJ-77242113, S^3,1,S^3,6-cyclo[N-acetyl-3-sulfanyl-L-valyl-L-asparaginyl-L-threonyl-7-methyl-L-tryptophyl-N^6-acetyl-L-lysyl-3-sulfanyl-L-valyl-O-(2-aminoethyl)-L-tyrosyl-3-(naphthalen-2-yl)-L-alanyl-4-aminooxan-4-carbonyl-L-α-glutamyl-L-asparaginyl-3-(pyridin-3-yl)-L-alanyl-N^2-methylglycinamide]] the inhibition at 10 µM ([1]; 1st run, read-out: Percent inhibition of control ligand binding, A2A, 1st run) was -8.7%, the inhibition at 10 µM ([1]; 2nd run, read-out: Percent inhibition of control ligand binding, A2A, 2nd run) was -6.2% and the inhibition at 10 µM ([1]; mean of 2 runs, read-out: Percent inhibition of control ligand binding, A2A, Mean) was -7.5%. It also gave an inhibition at 10 µM ([2]; 1st run, read-out: Percent inhibition of control ligand binding, CB2, 1st run) of -4.9%, an inhibition at 10 µM ([2]; 2nd run, read-out: Percent inhibition of control ligand binding, CB2, 2nd run) of -5.8% and an inhibition at 10 µM ([2]; mean of 2 runs, read-out: Percent inhibition of control ligand binding, CB2, Mean) of -5.4%. The inhibition at 10 µM ([3]; 1st run, read-out: Percent inhibition of control ligand binding, H1, 1st run) was -8.4%, the inhibition at 10 µM ([3]; 2nd run, read-out: Percent inhibition of control ligand binding, H1, 2nd run) was -9.8% and the inhibition at 10 µM ([3]; mean of 2 runs, read-out: Percent inhibition of control ligand binding, H1, Mean) was -9.1%. The inhibition at 10 µM ([4]; 1st run, read-out: Percent inhibition of control ligand binding, M1, 1st run) was -4.1%, the inhibition at 10 µM ([4]; 2nd run, read-out: Percent inhibition of control ligand binding, M1, 2nd run) was 3.3% and the inhibition at 10 µM ([4]; mean of 2 runs, read-out: Percent inhibition of control ligand binding, M1, Mean) was -0.4%. For the same molecule, the inhibition at 10 µM ([5]; 1st run, read-out: Percent inhibition of control ligand binding, N neuronal α4β2, 1st run) was -10.4%, the inhibition at 10 µM ([5]; 2nd run, read-out: Percent inhibition of control ligand binding, N neuronal α4β2, 2nd run) was -7.5% and the inhibition at 10 µM ([5]; mean of 2 runs, read-out: Percent inhibition of control ligand binding, N neuronal α4β2, Mean) was -8.9%. The inhibition at 10 µM ([6]; 1st run, read-out: Percent inhibition of control ligand binding, AR, 1st run) was -5.6%, the inhibition at 10 µM ([6]; 2nd run, read-out: Percent inhibition of control ligand binding, AR, 2nd run) was -3.7% and the inhibition at 10 µM ([6]; mean of 2 runs, read-out: Percent inhibition of control ligand binding, AR, Mean) was -4.7%. For the same molecule, the inhibition at 10 µM ([7]; 1st run, read-out: Percent inhibition of control ligand binding, V1a, 1st run) was 4.8%, the inhibition at 10 µM ([7]; 2nd run, read-out: Percent inhibition of control ligand binding, V1a, 2nd run) was 6.4% and the inhibition at 10 µM ([7]; mean of 2 runs, read-out: Percent inhibition of control ligand binding, V1a, Mean) was 5.6%. For the same molecule, the inhibition at 10 µM ([8]; 1st run, read-out: Percent inhibition of control ligand binding, COX1, 1st run) was -18.8%, the inhibition at 10 µM ([8]; 2nd run, read-out: Percent inhibition of control ligand binding, COX1, 2nd run) was -37.6% and the inhibition at 10 µM ([8]; mean of 2 runs, read-out: Percent inhibition of control ligand binding, COX1, Mean) was -28.2%. It also gave an inhibition at 10 µM ([9]; 1st run, read-out: Percent inhibition of control ligand binding, PDE4D2, 1st run) of -22.6%, an inhibition at 10 µM ([9]; 2nd run, read-out: Percent inhibition of control ligand binding, PDE4D2, 2nd run) of -11.7% and an inhibition at 10 µM ([9]; mean of 2 runs, read-out: Percent inhibition of control ligand binding, PDE4D2, Mean) of -17.1%. It also gave an inhibition at 10 µM ([10]; 1st run, read-out: Percent inhibition of control ligand binding, Lck kinase, 1st run) of 8.6%, an inhibition at 10 µM ([10]; 2nd run, read-out: Percent inhibition of control ligand binding, Lck kinase, 2nd run) of -2.3% and an inhibition at 10 µM ([10]; mean of 2 runs, read-out: Percent inhibition of control ligand binding, Lck kinase, Mean) of 3.1%. The inhibition at 10 µM ([11]; 1st run, read-out: Percent inhibition of control ligand binding, acetylcholinesterase, 1st run) was 9.8%, the inhibition at 10 µM ([11]; 2nd run, read-out: Percent inhibition of control ligand binding, acetylcholinesterase, 2nd run) was 2.2% and the inhibition at 10 µM ([11]; mean of 2 runs, read-out: Percent inhibition of control ligand binding, acetylcholinesterase, Mean) was 6%. The “Mean dilution-adjusted exposure at 2 h (Tmax)” value ([12]; 10 mg/kg oral, plasma LC–MS/MS, dilution adjusted) was 660 pM and the “Exposures (in words)” value ([12]; in vivo oral doses less than 10 mg/kg) was “below the limit of quantification”.
